By pIC50 is commonly meant the IC50 on a negative log10 scale, so that one unit is a factor of ten. One may read the Hill slope as a measure of the steepness of the concentration-response curve. For orientation: Km means the substrate concentration at which the rate is half of its maximum.

Experiment [1] addresses T1, S. aureus SgtB (Staphylococcus aureus, UniProt Q99T05). Nature of the experiment: Dose-dependent displacement of probe CMG121 from S. aureus SgtB by fluorescence polarization. Format: binding. The arrangement: made in house. The protocol: (§1) I. Dose-Dependent Displacement of CMG121 from S. aureus SgtB by Fluorescence Polarization
(§2) A black 384 well plate (Corning NBS Low Volume No. 3820) was filled (10 μL per well) with an equilibrated solution containing 10 mM TRIS (pH=8.0), 100 mM NaCl, 75 nM CMG121, and 1.0-1.5 μM S. aureus SgtB (depending on protein batch). Due to presence of 8 mM CHAPS detergent in the buffer of the S. aureus SgtB stock, the final assay solution contains 100-160 μM CHAPS. Using an HP D300 Digital Dispenser, for each compound a 1/1 dilution series (12 wells) of the primary hit compound in DMSO (normalized to 1 μL with DMSO) was prepared and added to the aforementioned assay solution. The plate was incubated at 4° C. for 30 min and read with a Perkin Elmer EnVision microplate reader (FP-read out, excitation: 480 nm; emission: 535 nm).
(§3) FIGS. 10A-E show values of reduction of fluorescence polarization for exemplified compounds. […] In the primary assay, FP was read after 30 min at 4° C., compound concentration was ca. 100 μM, and 90% reduction in FP was threshold for scoring hits (Gampe et al., J. Am. Chem. Soc. 2013, 135 (10), 3776-3779; U.S. Provisional Patent Application, U.S. Ser. No. 61/621,229, filed on Apr. 6, 2012; International Application No. PCT/US2013/030800 filed on Mar. 13, 2013).
(§4) The values were determined in two independent experiments. IC50=10 μM; Hill slope: −0.92.
A general note: Fluorescence polarisation rises when a labelled molecule tumbles more slowly, as on binding a larger partner.

The next experiment deals with MSSA Newman. Nature of the experiment: MIC test in TSB medium with MTT staining, MSSA Newman. Format: cell-based, Staphylococcus aureus. The conditions noted are these: TSB, 37° C., MTT staining after 22 h. Here is the method: MIC Test (Methicillin Susceptible Staphylococcus aureus (MSSA Newman))
Overnight cultures of MSSA Newman were grown up in TSB medium at 37° C. The cultures obtained were normalized with TSB to OD600=0.6 and diluted 100-fold. 1.5 μL of a dilution series of Example Compounds in DMSO (100×, in duplicate), and the diluted bacterial culture (150 μL) was added to wells of a sterile, clear 96 well plate and incubated at 37° C.

In another experiment the test system is E. faecalis PBP2a. The experiment is described as follows: In vitro inhibition of polymerization of 14C-lipid II by E. faecalis PBP2a. Format: biochemical. The settings on record: 50 nM PBP2a, 25 min at room temperature.
A further experiment has as its system S. aureus NEI. The experiment is described as follows: TEM imaging of S. aureus NE1 treated with compound. The experiment is classed as cell-based. An excerpt: FIGS. 7A and 7B show TEM imaging of S. aureus NEI treated with compound 1882L04.
For experiment [2], the system named is S. aureus RN4220. The conditions noted are these: S. aureus RN4220 grown with 65 ug/mL for 22 h, repeated. Here is the method: A liquid culture of wild-type S. aureus RN4220 was grown up in the presence of 1882L04 (65 ug/mL) for 22 h. This culture was normalized to OD600=0.6, diluted 100×, and grown up in the presence of 1882L04 (65 ug/mL) and DMSO. The cultures obtained after 22 h were treated as mentioned before and grown up again.

The target of experiment [3] is T1, S. aureus SgtB. The conditions noted are these: read-out: IC50, in vitro inhibition of S. aureus SgtB; 50 nM SgtB, 14C-lipid II, 25 min at room temperature, two independent experiments.
Protocol: In Vitro Inhibition of Polymerization of Lipid II by PGTs
(i) In Vitro Inhibition of S. aureus SgtB:
Then ^14C-labelled lipid II (1 μL, 40 μM, ^14C/^12C 1/3) was added and the polymerization reaction was allowed to proceed for 25 min at room temperature. The reaction was quenched with 10 μL of a solution of moenomycin (1 μM) in 10% triton-X reduced and the remaining lipid II was separated from peptidoglycan (PG) using paper strip chromatography (isobutyric acid/1M NH4OH 5/3). Using a scintillation counter the ratio of radioactivity in PG to total radioactivity was determined and plotted vs. inhibitor concentration. IC50 values were determined using the curve fitting program GraphPad Prism 5.0 (GraphPad Software, Inc.; La Jolla, Calif., USA).
In experiment [4] the target is T1, S. aureus SgtB. Nature of the experiment: Michaelis-Menten kinetics of lipid II polymerization by S. aureus SgtB in the presence of 1882L04. Format: biochemical. The arrangement: made in house. The protocol:
(ii) Determination of KM and vmax for Polymerization of Lipid II by S. aureus SgtB in the Presence of 1882L04
The polymerization reaction was initiated by addition of radioactively labeled lipid II (1 μL, 100 μM, ^14C/^12C=1/3; for a final concentration of 10 μM=KM). […] This ratio was multiplied with the concentration of lipid II used to obtain the amount of lipid II in PG in μM. This value was devided by 1200 s to obtain the reaction rate v in μM/s, which was plotted vs. concentration of lipid II.

Experiment [5] relates to S. aureus RN4220. Nature of the experiment: Growth (CFU) of S. aureus RN4220 in the presence of compound. Format: cell-based. The settings on record: S. aureus RN4220, 1-6 h.
The test system of the next experiment is MSSA NE1. The experiment is described as follows: MIC test in TSB medium with MTT staining, MSSA NE1. The experiment is classed as cell-based, Staphylococcus aureus. Here is the method:
MIC Test (Methicillin Susceptible Staphylococcus aureus (MSSA Newman) and MSSA NE1)
Overnight cultures of MSSA Newman and MSSA NE1 were grown up in TSB medium at 37° C. The cultures obtained were normalized with TSB to O600=0.6 and diluted 100-fold. A sterile, clear 96 well plate was charged with 1.5 μL of a dilution series compound 1882L04 in DMSO (100×, in duplicate), and the diluted bacterial culture was added (150 μL). Moenomycin at a final concentration of 2.3 μM was used as positive control.

In experiment [6] the target is T2, S. aureus SgtB (SgtB ΔTM) (Staphylococcus aureus, UniProt Q99T05).
T2 construct: SgtB ΔTM of S. aureus; made in house
The experiment is described as follows: Dose-dependent displacement of probe CMG121 from S. aureus SgtB by fluorescence polarization. The conditions noted are these: 75 nM CMG121, 1.0-1.5 μM SgtB, pH 8.0, 30 min at 4° C., read-out: SgtB (FP, probe CMG121 displacement) IC50. Format: binding. The protocol:
FIGS. 10A to 10E show dose-dependent displacement of probe CMG121 from S. aureus SgtB with exemplified compounds determined by fluorescence polarization.
All of the references are incorporated by reference herein. • SgtB ΔTM of S. aureus (referred to as “SgtB”), • PBP2a (A68-N728) of E. faecalis (referred to as “PBP2a”)
Probe compound CMG121 was prepared as previously described (Gampe et al., J. Am. Chem. Soc. 2013, 135 (10), 3776-3779; U.S. Provisional Patent Application Nos. 61/621,229 filed on Apr. 6, 2012).
as §1, §2, §3, §4

The subject of the next experiment is S. aureus ATCC 29213. The experiment is described as follows: MIC test according to CLSI M7-A9, S. aureus ATCC 29213. The experiment is classed as cell-based. The conditions noted are these: Staphylococcus aureus, ATCC29213; CLSI M7-A9, CAMHB, 24 h (Table 3); read-out: S. aureus ATCC 29213 MIC. In outline:
(§5)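 Per CLSI M7-A9, DMSO stocks diluted in cation-adjusted Mueller Hinton broth, plates incubated 24 h at 37 °C in air. MIC is the lowest concentration giving complete inhibition of visible growth, read visually and at 600 nm.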

In another experiment the test system is H. influenzae ATCC 49247. The experiment is described as follows: MIC test according to CLSI M7-A9, H. influenzae ATCC 49247. The experiment is classed as cell-based. The conditions noted are these: Haemophilus influenzae, ATCC49247; CLSI M7-A9, Haemophilus Test Medium, 24 h. Here is the method: MIC Test (H. influenzae ATCC 49247)
Susceptibility testing of H. influenzae ATCC 49247 was performed according to Clinical Laboratory Standard Institute (CLSI) guidelines M7-A9. Test articles were stored at room temperature prior to use, then dissolved in filtered sterile DMSO. Stock DMSO solutions were diluted further in Haemophilus Test Medium (HTM) to provide appropriate test concentrations. Cultures of H. influenzae ATCC 49247 were added in accordance with CLSI guidelines and plates incubated at 37° C. in air for 24 h. Endpoints were determined visually (and by spectrophotometer at 600 nm) and the minimum inhibitory concentration (MIC) defined as the lowest concentration of test articles resulting in complete inhibition of visible bacterial growth.

A further experiment has as its system S. aureus Newman. Nature of the experiment: MIC test according to CLSI M7-A9, S. aureus Newman. Format: cell-based. The conditions noted are these: Staphylococcus aureus, CLSI M7-A9, CAMHB, 24 h (Table 3), read-out: S. aureus ATCC Newman MIC. The procedure, abridged:
as §5

Another experiment has as its system S. aureus ATCC 43300. Nature of the experiment: MIC test according to CLSI M7-A9, S. aureus ATCC 43300. Format: cell-based. The settings on record: Staphylococcus aureus, ATCC43300; CLSI M7-A9, CAMHB, 24 h (Table 3); read-out: S. aureus ATCC 43300 MIC. The procedure, abridged:
as §5

pIC50: −log10 of the molar value. Values after ≈ are worked out from the molar mass of the structure shown. Where two headings read alike, the source gives them in different places.

Protocol for E. faecalis PBP2a: (ii) In Vitro Inhibition of E. faecalis PBP2a
Solutions of the E. faecalis PBP2a (50 nM) in 50 mM HEPES (pH=7.5), 10 mM CaCl2, and 1000 U/min PenG (8 μL) were incubated with DMSO solutions containing the inhibitor of interest in different concentrations (1 μL) for 20 min. Then ^14C-labelled lipid II (1 μL, 40 μM, ^14C/^12C 1/3) was added and the polymerization reaction was allowed to proceed for 25 min at room temperature.

Regarding `Cc1cccc(OCCCSc2nc(-c3ccc(C(C)(C)C)cc3)nc3cc(=O)[nH]n23)c1C` [1882L04], the negative logarithm of the IC50 (pIC50) was 5.00 at S. aureus SgtB [1] (displacement of 75 nM CMG121 from S. aureus SgtB, 30 min at 4° C., read-out: IC50 from FP Assay); 3.47 in the experiment on E. faecalis PBP2a; 4.01 on S. aureus SgtB [3]. Further, on S. aureus SgtB [1] (displacement of CMG121 from S. aureus SgtB, two independent experiments), the Hill slope is recorded as −0.92. Besides, the “MIC MSSA Newman” value in the experiment on MSSA Newman was found to be 125 µg/mL (≈ 270 µM). Also, the “Cell morphology by TEM” value with S. aureus NEI is reported as “growth defects”. In addition, in the experiment with S. aureus RN4220 [2], the Development of resistance entry is “became resistant”. Also, the Michaelis-Menten constant (Km) is 18.2 µM at S. aureus SgtB [4] (c(1882L04)=50 μM) and 20.9 µM on S. aureus SgtB [4] (c(1882L04)=100 μM). Besides, the “vmax for polymerization of lipid II by SgtB” value stood at 0.015 µM/s at S. aureus SgtB [4] (c(1882L04)=50 μM) and 0.012 µM/s at S. aureus SgtB [4] (c(1882L04)=100 μM). In the experiment on S. aureus RN4220 [5], the “Type of antibacterial activity (number of CFUs)” value is “bacteriostatic activity”. The “Sensitization of MSSA NE1 to compound (MIC data)” value in the experiment on MSSA NE1 is reported as “sensitized”. Moreover, the “MIC MSSA NE1” value with MSSA NE1 (TSB, 37° C., MTT staining after 22 h) was 8 µg/mL (≈ 17.3 µM).
`Cc1ccc(C(C)C)c(OCCSc2nc(-c3ccccc3F)nc3cc(=O)[nH]n23)c1` [Compound 1882J21]: the pIC50 in [6] (Figure 10F) was less than 3.70.
`Cc1ccc(Cc2c(=O)[nH]n3c(=S)[nH]c(-c4ccc(C(C)(C)C)cc4)nc23)cn1` [Example 112, 2-(4-tert-butylphenyl)-8-[(6-methylpyridin-3-yl)methyl]-4-sulfanylidene-3H,4H,6H,7H-pyrazolo[1,5-a][1,3,5]triazin-7-one]: the MIC in the experiment with S. aureus ATCC 29213 was 8 µg/mL (≈ 19.7 µM); in the experiment on H. influenzae ATCC 49247, 16 µg/mL (≈ 39.5 µM); with S. aureus Newman it was 4 µg/mL (≈ 9.86 µM).
As for `Cc1ccc(OCCCSc2nc(-c3ccc(C(C)(C)C)cc3)nc3cc(=O)[nH]n23)cc1C` [Compound 1882F04], in experiment [6] (Figure 10F), the pIC50 was 4.59.
Take `Cc1cccc(OCCCSc2nc(-c3ccc(C(C)(C)C)cc3)nc3cc(=O)[nH]n23)c1C` [Compound 1882L04]: the negative-log IC50 (pIC50) in experiment [6] (Figure 5) was 5.15.
Regarding `Cc1ccc(-c2nc(SCCOc3ccccc3C)n3[nH]c(=O)cc3n2)cc1` [Compound 1882P19], the pIC50 in experiment [6] (Figure 10F) is less than 3.70.
As to `CC(C)(C)c1ccc(-c2nc(NCCNC3Cc4ccccc4C3)n3[nH]c(=O)cc3n2)cc1` [Example 90, 2-(4-tert-Butylphenyl)-4-({2-[(2,3-dihydro-1H-inden-2-yl)amino]ethyl}amino)-6H,7H-pyrazolo[1,5-a][1,3,5]triazin-7-one], the MIC in the experiment with S. aureus ATCC 29213, in the experiment with H. influenzae ATCC 49247, in the experiment with S. aureus Newman and with S. aureus ATCC 43300 was 16 µg/mL (≈ 36.2 µM) throughout.

The values are drawn from US20180162862A1 (President and Fellows of Harvard College, priority 2015, published 2018).
